Laboratory results reported in patent publication US9630941B2 (priority 2008, dated 2017).

Legend:
[1] = Chemical stability pH dependent at 25° C.; assay type: physicochemical
Protocol: B. Chemical Stability pH Dependent at 25° C.

[2] = Thermal stability, 120° C. for 10 min; assay type: physicochemical; conditions: for CBN content of the sample after heating / Drug remaining / THC content of the sample after heating / Drug remaining (%): 120° C. for 10 min; for Drug remaining (%): % of initial; for CBN content of the sample, initial / Initial, μg (drug itself) / THC content of the sample, initial: before heating
Protocol: C. Thermal Stability—120° C. for 10 min.

[3] = Bioreversion: plasma stability, porcine plasma; assay type: in vitro ADME
[4] = Aqueous solubility, pH dependent; assay type: physicochemical
[5] = Porcine buccal tissue homogenate stability; assay type: in vitro ADME; conditions: protein concentration 2 mg/ml
Protocol: (§1) b. Porcine Buccal Tissue Homogenate Stability
(§2) Protein Concentration 2 mg/ml

[6] = Control (IPBS) stability for the buccal homogenate study; assay type: physicochemical
Protocol: as §1, §2

For CCCCCc1cc(OC(=O)CCCc2ccc(NC(=O)CCC(=O)O)cc2)c2c(c1)OC(C)(C)[C@@H]1CCC(C)=C[C@@H]21 [THC-APB-HS (14), THC-4(4-aminophenyl)butyrate-hemisuccinate], the “First order rate constant” value ([1]; Buffer pH 5.0, 25° C.) was 0.00368 h⁻¹, the “First order rate constant” value ([1]; Buffer pH 7.0, 25° C.) was “Stable” and the “First order rate constant” value ([1]; Buffer pH 9.0, 25° C.) was “Stable”. For the same compound, the “First order rate constant” value ([1]; Water, 25° C.) was 0.00481 h⁻¹, the “Drug loading (%)” value [2] was 96.66 ± 2.18% and the “CBN content of the sample after heating” value [2] was 38.36 ± 9.70 µg. The “Drug remaining” value [2] was 1518.84 ± 34.38 µg, the “THC content of the sample after heating” value [2] was 0 µg and the “Drug remaining (%)” value [2] was “(104.81 ± 4.74) %”. The “CBN content of the sample, initial” value [2] was 47.63 ± 9.92 µg, the “Initial, μg (drug itself)” value [2] was 1449.90 ± 32.76 µg and the “THC content of the sample, initial” value [2] was 0 µg. For the same compound, the K [3] was “Stable” and the T1/2 [3] was “Stable”.

In the case of CCCCCc1cc(OC(=O)[C@@H](N)C(C)C)c2c(c1)OC(C)(C)C1CCC(C)=CC21.O=C(O)CC(=O)O (stereo partly shown) [THC-Valinate malonate], the “Aqueous Solubility” value ([4]; H20) is reported as 1.21 ± 0.61 µg/mL, the “Aqueous Solubility” value ([4]; Water) is reported as 2.33 ± 1.19 µM and the “Aqueous Solubility” value ([4]; pH 1.2) is reported as 53.63 ± 1.09 µg/mL. For the same compound, the “Aqueous Solubility” value ([4]; pH 1.2, listed as THC-Valine malonate) was 103.61 ± 2.11 µM, the “Aqueous Solubility” value ([4]; pH 2) was 118.42 ± 5.07 µg/mL and the “Aqueous Solubility” value ([4]; pH 2, listed as THC-Valine malonate) was 228.78 ± 9.79 µM. The “Aqueous Solubility” value ([4]; pH 3) was 50.03 ± 1.80 µg/mL, the “Aqueous Solubility” value ([4]; pH 3, listed as THC-Valine malonate) was 96.65 ± 3.49 µM and the “Aqueous Solubility” value ([4]; pH 4) was 13.92 ± 1.56 µg/mL. The “Aqueous Solubility” value ([4]; pH 4, listed as THC-Valine malonate) was 26.88 ± 3.01 µM, the “Aqueous Solubility” value ([4]; pH 5) was 1.22 ± 0.00 µg/mL and the “Aqueous Solubility” value ([4]; pH 5, listed as THC-Valine malonate) was 2.36 ± 0.01 µM. For the same compound, the “Aqueous Solubility” value ([4]; pH 6) was 0.13 ± 0.02 µg/mL, the “Aqueous Solubility” value ([4]; pH 6, listed as THC-Valine malonate) was 0.25 ± 0.04 µM and the “Aqueous Solubility” value ([4]; pH 7) was 0.05 ± 0.02 µg/mL. The “Aqueous Solubility” value ([4]; pH 7, listed as THC-Valine malonate) was 0.11 ± 0.03 µM, the “Aqueous Solubility” value ([4]; pH 8) was 0.06 ± 0.00 µg/mL and the “Aqueous Solubility” value ([4]; pH 8, listed as THC-Valine malonate) was 0.12 ± 0.01 µM. The “Aqueous Solubility” value ([4]; pH 9) was 0.14 ± 0.02 µg/mL and the “Aqueous Solubility” value ([4]; pH 9, listed as THC-Valine malonate) was 0.27 ± 0.03 µM.

For CCCCCc1cc(OC(=O)C(N)Cc2c[nH]c3ccccc23)c2c(c1)OC(C)(C)C1CCC(C)=CC21.O=C(O)CC(=O)O (stereo not shown) [THC-Tryptophanate Malonate], the “Aqueous Solubility” value ([4]; H20) was 13.27 ± 14.72 µg/mL, the “Aqueous Solubility” value ([4]; Water) was 8.02 ± 8.90 µM and the “Aqueous Solubility” value ([4]; pH 1.2) was 1.58 ± 0.19 µg/mL. For the same compound, the “Aqueous Solubility” value ([4]; pH 1.2, listed as THC-Tryptophan Malonate) was 0.95 ± 0.12 µM, the “Aqueous Solubility” value ([4]; pH 2) was 4.65 ± 0.31 µg/mL and the “Aqueous Solubility” value ([4]; pH 2, listed as THC-Tryptophan Malonate) was 2.81 ± 0.19 µM.

With CCCCCc1cc(OC(=O)[C@@H](N)Cc2c[nH]c3ccccc23)c2c(c1)OC(C)(C)[C@@H]1CCC(C)=C[C@@H]21 [THC-Tryptophanate (10), Δ^9-THC-tryptophinate] the “First order rate constant” value ([1]; Buffer pH 5.0, 25° C.) was 0.00829 h⁻¹, the “First order rate constant” value ([1]; Buffer pH 7.0, 25° C.) was 0.03803 h⁻¹ and the “Drug loading (%)” value [2] was 89.84 ± 4.53%. For the same compound, the “CBN content of the sample after heating” value [2] was 16.63 ± 2.63 µg, the “Drug remaining” value [2] was 1216.70 ± 32.88 µg and the “THC content of the sample after heating” value [2] was 96.10 ± 16.64 µg. For the same compound, the “Drug remaining (%)” value [2] was “(90.47 ± 7.00) %”, the “CBN content of the sample, initial” value [2] was 25.59 ± 2.26 µg and the “Initial, μg (drug itself)” value [2] was 1347.57 ± 67.93 µg. For the same compound, the “THC content of the sample, initial” value [2] was 97.38 ± 6.39 µg, the K [3] was 48.55 ± 5.90 ×10^−2 min^−1 and the T1/2 [3] was 1.44 ± 0.17 min. For the same compound, the K [5] was 9.06 ± 1.26 ×10^−3 min^−1, the T1/2 [5] was 77.27 ± 10.73 min and the K [6] was 0.77 ± 0.02 ×10^−3 min^−1.
